These results are taken from a melting point compilation (Tetko et al.; mined from patent text by program, amines drawn as free bases though some values may be those of a salt).

Residues, ends and D or L forms follow the SMILES beside them. *: point of attachment. For = O=C* Where only a bound is given, the exact number is not on record here.

With `CCn1c(=N)c(-c2cc(OC)cc(OC)c2)cc2cnc(SC)nc21`, the melting point (in general, the temperature of the solid-liquid transition) lay within 93 to 95 °C.

`CCc1ccc2c(c1)N(Cc1ccc(-c3ccccc3C#N)cc1)C(=O)CC2(C)C` registered a melting point of 171 to 172 °C.

In turn, `Cc1ccc(N)c(C(=O)Nc2cccnc2Cl)c1` showed a melting point of 187 to 190 °C.

In turn, `COc1ccc(CNC(=S)N2CCN(c3ncnc4cc(OC)c(OC)cc34)CC2)cc1` yielded a melting point of 201 to 204 °C.

For `CC(=O)OC[C@@H](C)[C@H]1CC[C@H]2[C@@H]3C=CC4=CC(=O)C=C[C@]4(C)[C@H]3CC[C@]12C`, the melting point fell in the range of 90 to 93 °C.

In the case of `Cc1cc(C2CCCC2)c(O)c(C2CCCC2)c1`, the melting point was 78 °C.

The compound `CCCC1CC(=O)c2c(NC(=O)C(=O)O)ccc(C)c21` (stereo not given) registered a melting point of 157 to 158 °C.

With `O=[N+]([O-])c1ccc(Oc2ccc(O)cc2)cc1`, the melting point lay within 173 to 174 °C.

With `OCc1cncn1-c1ccccc1`, the melting point was in the range of 81 to 84 °C.

As to `CCN(CC1CCCC1)c1nc2c(cc1CN(Cc1cc(C(F)(F)F)cc(C(F)(F)F)c1)c1nc(C(F)(F)F)co1)c(C)nn2C`, the melting point worked out at 139 °C.

For the compound `CC1(Br)CCCNC1=O` (stereo not given), the melting point is 107 to 109 °C.

The compound `NS(=O)(=O)c1ccc(NC(=O)c2ccccc2SSCC(O)CO)cc1` (stereo not given) came in with a melting point greater than 260 °C.

In turn, `O=C(O)c1cn(C2COC2)c2cc(F)c(F)cc2c1=O` returned a melting point of 255 to 256 °C.

In turn, `CSc1ccc(C2=C(c3ccc(F)cc3C)CCC2)cc1` had a melting point of 67 to 68 °C.

In the case of `C=CCOC(=O)c1c(-c2ccncc2)[nH]c(-c2ccncc2)c1C`, the melting point is 224 °C.

Take `Cc1nc(-c2ccc(-c3ccccc3S(=O)(=O)Nc3onc(C)c3C)cc2)oc1C`: the melting point was 96 to 102 °C.

For `CSc1cc(C(=O)c2cnoc2C2CC2)ccc1C`, the melting point lay within 85.5 to 86.1 °C.

`CC12CCC3c4ccc(O)cc4CC(Sc4ccc(O)cc4)C3C1CCC2O` (stereo not given) registered a melting point of 140 to 145 °C.

Turning to `CCN1CCCC(N2C(=O)c3ccc(N)cc3C2=O)C1` (stereo not given), the melting point is greater than 300 °C.

`Nc1nc2c(C(CC(=O)O)C3CCCCC3)c[nH]c2c(=O)[nH]1` (stereo not given): the melting point is greater than 300 °C.

`CCCC[C@H](NC(=O)[C@H](CC(C)C)NC(=O)c1ccccc1C)C(=O)CSCc1ccco1` registered a melting point of 118 to 119 °C.

With `CCOC(=O)Cc1nnc2c(CC(C)C)nc(-c3ccccc3)cn12`, the melting point lay in the range of 105 to 107 °C.

In the case of `C=C(C)CN1Cc2cc(Cl)cc3[nH]c(=S)n(c23)[C@@H](C)C1`, the melting point came to 171 °C.

For `COc1cccc2c1C1=C(CC2)NC(=O)CC1`, the melting point was determined as 190 °C.

Turning to `O=c1[nH]c2cc(Cl)ccc2c(=O)n1S(=O)(=O)c1ccc([N+](=O)[O-])cc1`, the melting point is greater than 250 °C.

Consider `CC(=Cc1ccccc1)C(=O)c1ccc(O)c(CC(=O)O)c1`, for which the melting point came to 192 °C.

For the compound `CCOC(=O)COc1cccc2c1CCc1sc(S(=O)(=O)C(c3ccccc3)c3ccccc3)nc1-2`, the melting point lay in the range of 184 to 187 °C.

Consider `COc1ccc(-c2nn(Cc3ccccc3)c(=O)c3ccccc23)c(O)c1OC`, for which the melting point is 155 to 156 °C.

Take `O=C1N=NC(=O)c2c1[nH]c1c(Cl)cccc21`: the melting point is greater than 250 °C.

`COC(=O)C=Cc1ccc(Br)nc1` showed a melting point of 150 °C.

For the compound `CCOC(=O)NN(C)c1ccc(-c2ccccc2)nn1`, the melting point lay within 129 to 130 °C.

Compound `CCOC(=O)N(C)CC(N)=S` had a melting point of 91 to 93 °C.

`CC(C)(C)c1ccc(CCOc2ncnc3cnccc23)cc1` came in with a melting point of 59 to 60 °C.

For the compound `CCCN(C(=O)Cl)C(=O)CCl`, the melting point lay within 40 to 44 °C.

`COC(=O)c1ccc(OC)c2c(C(F)(F)F)c(OC)ccc12` returned a melting point of 120 to 123 °C.

In turn, `CC(C)(C)OC(=O)/C(C#N)=C/c1cccc2ccccc12` came in with a melting point of 51 to 53 °C.

Compound `Clc1nc(-c2ccccn2)[nH]c1I` registered a melting point of 188 to 189 °C.

In turn, `CC(=O)c1ccc(N)c(C#N)c1` registered a melting point of 155 to 159 °C.

As to `N#Cc1cc(-c2cccnc2)nn1-c1ccc(NCC2Cc3ccccc3C2)cc1`, the melting point is 156 to 158 °C.

`COc1cc(-c2ccccn2)cc([N+](=O)[O-])c1OC` displayed a melting point of 89 to 90 °C.

Compound `Cc1cccc(NC(N)=S)n1` had a melting point of 188 to 190 °C.

For `O=C(NCc1cccs1)Nc1cc(N2CC(c3ccccc3)CC2=O)ccn1` (stereo not given), the melting point fell in the range of 179 to 180 °C.

For the compound `CCc1cnc(N2CCC(c3ccc4oc(-c5ccc(S(C)(=O)=O)cc5F)nc4c3)CC2)nc1`, the melting point lay within 190 to 194 °C.

`CCOc1ccc2c(c1)n(C1CCCCC1)c(=O)n2S(=O)(=O)c1ccc(C(=O)NC(C)(C)CC(C)(C)C)cc1OC`: the melting point came to 180 °C.

`CC(C)N1CCN(Cc2ccc(Cl)nc2)C1=N[N+](=O)[O-]` came in with a melting point of 138 to 142 °C.

In turn, `C=C(C)C(=O)OCCC#Cc1ccc(-c2ccc(OC(=O)C(=C)C)cc2)cc1` gave a melting point of 80 °C.

Turning to `COc1cc2ncc(C#N)c(Nc3ccc(O)cc3O)c2cc1OC`, the melting point is greater than 250 °C.

Compound `CCc1nc2c(N)nc3ccc(-c4cccnc4)cc3c2n1CC(C)C` showed a melting point greater than 250 °C.

`O=C1Nc2ccc([N+](=O)[O-])cc2C1(Br)Br`: the melting point was 205 °C.

`COC(COc1ccc(C(=O)NCC(NC(=O)OCc2ccccc2)C(=O)OC(C)(C)C)cc1)OC` (stereo not given) yielded a melting point of 115 °C.

`CC1(C)CC(=O)C(c2c[nH]c3ccccc23)C(=O)C1`: the melting point is 173 °C.

As to `Cc1ccc(C(=O)Nc2ccccc2)cc1NC(=S)Nc1cc(Cl)cc(Cl)c1`, the melting point was in the range of 182 to 184 °C.

The compound `Cc1cccc2nc(NC(=N)N)[nH]c12` showed a melting point greater than 260 °C.

Compound `N#Cc1cc(C(F)(F)F)cc(Br)c1-c1nc(C(F)(F)C(F)(F)F)c(Br)c(=O)[nH]1` registered a melting point of 156 °C.

With `CC(C)c1nn(-c2ccc(C(F)(F)F)cn2)cc1CCCOc1nn(C)cc1CCC(=O)O`, the melting point lay within 124 to 125 °C.

In turn, `N=c1sc2cc(OC(F)(F)F)ccc2n1CCS(=O)c1ccncc1` (stereo not given) showed a melting point of 194 °C.

`Cc1ccc([N+](=O)[O-])cc1C=Cc1ccccc1`: the melting point stood at 65.5 °C.

In the case of `CN1CCN(S(=O)(=O)c2ccccc2NC(=O)N[C@@H](Cc2ccc(NC(=O)c3c(Cl)cncc3Cl)cc2)C(=O)O)CC1`, the melting point is 189 °C.

For `CN1CCN(c2ccc(Nc3ncc4ccc(-c5cccc(CN(C)S(C)(=O)=O)c5)n4n3)cc2)CC1`, the melting point fell in the range of 229 to 230 °C.

Take `CC(C)OC(=O)C(C(=O)c1ccc2c(c1)OCO2)=C1SC=CS1`: the melting point was 136 to 138 °C.

The compound `COc1ccc(O)c2c(C)c(C)[nH]c12` registered a melting point of 164 °C.

For `Cc1c(C)c2c(c(C)c1OC(=O)CCC(=O)O)CCC(C)(COc1ccc(CC3SC(=O)NC3=O)cc1)O2` (stereo not given), the melting point fell in the range of 197 to 202 °C.

Consider `C#Cc1c[nH]c2nc(NC(=O)C(C)(C)C)nc(O)c12`, for which the melting point was greater than 300 °C.

`COc1ccccc1SCCCCCCCCCC(=O)O` came in with a melting point of 65 to 66 °C.

Regarding `COc1ccc(C(CCCCC(=O)O)C2=CC(=O)c3ccccc3C2=O)cc1` (stereo not given), the melting point was 141 to 143 °C.

Regarding `Brc1ccn2nc(N3CCOCC3)nc2c1`, the melting point was in the range of 178 to 179 °C.

Turning to `CC(c1cccnc1)n1c(=O)[nH]c2cc(Cl)ccc21` (stereo not given), the melting point worked out at 190 °C.

`CC(C)N1CC(c2cc(CCc3ccccc3)ncn2)=C(O)C1=O` registered a melting point of 156 to 159 °C.

In turn, `CCCCCCCCCCCCCCc1onc(C(=O)OC)c1O` returned a melting point of 92 °C.

For `C[C@H](N[C@H]1CC[C@@H](c2ccccc2)CC1)[C@@H](O)c1ccc(O)cc1`, the melting point was 199 to 212 °C.

`COC(=O)c1cc(=O)c2c(C(F)(F)F)c3c(=O)cc(C(=O)OC)[nH]c3c(Cl)c2[nH]1` yielded a melting point of 205 to 208 °C.

`O=C(Nc1cccc(-c2ccnc3c(C(=O)c4cccs4)cnn23)c1)c1ccccn1`: the melting point is 198 to 200 °C.

With `CNC=Nc1cnc2ccccc2c1`, the melting point lay in the range of 142 to 143 °C.

Turning to `CC(=O)OCc1c(C)cc(C)c(NC(=O)c2sccc2S(=O)(=O)Nc2onc(C)c2C)c1C`, the melting point lay within 75 to 77 °C.

For `O=C1Nc2ccccc2N(C(=O)CN2C(=O)CCCC2=O)C2CCC(Cc3ccccc3)C12` (stereo not given), the melting point lay in the range of 220 to 221 °C.

For `CCCN1CC(NC(=O)C(C)(C)C)CC2c3cccc4[nH]c(Cl)c(c34)CC21` (stereo not given), the melting point lay in the range of 146 to 147 °C.

Compound `O=CNC(CC(=O)O)C(=O)NC(Cc1ccccc1)C(=O)O` (stereo not drawn) (For-Asp-Phe-OH; configuration not given here) gave a melting point of 180 to 182 °C.

In turn, `CC1CN(Cc2ccccc2)Cc2cc(-c3ccccc3)n(Cc3ccccc3)c21` (stereo not given) showed a melting point of 131 °C.

Turning to `CN1CCN(c2ccc(S(=O)(=O)c3cccc(F)c3)c(N)c2)CC1`, the melting point is 89 to 92 °C.

As for `COc1ccc(-c2nc(CCCCCC(C#N)C(=O)O)oc2-c2ccc(OC)cc2)cc1` (stereo not given), the melting point came to 150 °C.

In turn, `O=C(NC(=O)C(c1ccccc1)c1ccccc1)OCCN1CCOCC1` showed a melting point of 135 to 137 °C.

As for `CN1C(=O)C(NC(=O)CC2CCCCC2)N=C(N2CCCCCC2)c2ccccc21` (stereo not given), the melting point lay within 205 to 207 °C.

For `Fc1ccccc1-c1nc(Cl)nc2ccc(Cl)cc12`, the melting point is 208 to 210 °C.

Regarding `CCOC=C(C=C(C#N)C#N)CCc1ccc(C(=O)OC)cc1`, the melting point was in the range of 136 to 137 °C.

In turn, `COc1c2c(c(OC)c(OC)c1OC)CC(CCCOc1ccc(C(=O)O)cc1)C2` showed a melting point of 160 to 161 °C.

The compound `O=C(O)CCCN(C(=O)c1ccc(Cl)c(Cl)c1)c1ccc2c(c1)CCC2` returned a melting point of 58 to 59 °C.

In turn, `CCCc1c(O)ccc(C(=O)OC)c1O` showed a melting point of 66 to 68 °C.

In the case of `C=CCN(C)C1(C#N)CCC2(CC1)OCCO2`, the melting point was in the range of 47 to 50 °C.

In turn, `Cc1noc(NS(=O)(=O)c2cccs2)c1Br` showed a melting point of 125 to 127 °C.

For `CCOC(=O)c1nc2sc(Br)c([N+](=O)[O-])c2c(=O)[nH]1`, the melting point amounted to 284 °C.
